Results as given in publication PMC4977052, “On the Utility of ToxCast™ and ToxPi as Methods for Identifying New Obesogens” (Environmental Health Perspectives, 2016).
Like-named read-outs stand apart in the source and are kept apart here.

Legend:
[1] = test system: Human PPARγ; settings: PPARγ direct binding, NA = not active, cited from earlier work
[2] = molecular target: T1, GAL4-mPPARγ (Mus musculus, UniProt P37238); test: GAL4-mPPARγ activation, transient transfection luciferase reporter in COS7 cells; format: cell-based; settings: for Activation of GAL4-PPARγ (text): COS7, 100 μM through 0.137 μM; for EC50: COS7, ligands 24 hr, nonlinear regression variable slope, spirodiclofen constrained at top dose, read-out: PPARγ agonists: EC50, Fig 1A / Fig 4A; for PPARγ agonists: EC10, Fig 1A / Fig 4A: COS7, computed from EC50 in GraphPad Quick Calc
T1 construct: expressed in transfected cells; host or cells: COS7
T1 sequence (P37238 with tags, fused parts or gaps limits assumed): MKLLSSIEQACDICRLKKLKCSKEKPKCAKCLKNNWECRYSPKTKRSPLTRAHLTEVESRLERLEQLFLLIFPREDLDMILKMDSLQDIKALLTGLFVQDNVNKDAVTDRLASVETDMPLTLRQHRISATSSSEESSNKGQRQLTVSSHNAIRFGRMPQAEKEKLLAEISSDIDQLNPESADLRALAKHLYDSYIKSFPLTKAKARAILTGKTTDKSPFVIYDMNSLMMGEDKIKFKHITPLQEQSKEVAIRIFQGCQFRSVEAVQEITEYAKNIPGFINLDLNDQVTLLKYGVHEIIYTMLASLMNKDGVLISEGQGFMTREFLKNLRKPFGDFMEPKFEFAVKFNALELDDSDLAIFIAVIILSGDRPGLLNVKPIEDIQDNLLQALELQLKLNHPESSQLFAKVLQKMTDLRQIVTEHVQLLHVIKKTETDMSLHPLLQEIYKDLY

[3] = molecular target: T1, GAL4-mPPARγ; test: GAL4-mPPARγ antagonism in competition with 50 nM rosiglitazone, transiently transfected COS7 cells; format: cell-based
Method: pCMX-Gal4, pCMX-Gal4-mPPARγ, and pCMX-Gal4-hRXRα were previously described ([Grün et al. 2006]). Transient transfections were performed in COS7 cells as described ([Chamorro-García et al. 2012]). Briefly, COS7 cells were seeded at 15,000 cells per well in 96-well tissue culture plates in 10% calf bovine serum. The following day, cells were transfected in Opti-MEM at ~ 90% confluency. One microgram of CMX-GAL4 effector plasmid was co-transfected with 5 μg tk-(MH100)4-luciferase reporter and 5 μg of CMX-β-galactosidase transfection control plasmids in Opti-MEM® using Lipofectamine® 2000 reagent (Invitrogen™ Life Technologies, Carlsbad, CA, USA), following the manufacturer’s recommended protocol. All chemicals were solvated in dimethyl sulfoxide (DMSO). After overnight incubation, the medium was replaced with Dulbecco’s Modified Eagle Medium (DMEM; HyClone, Logan, UT, USA), 10% resin charcoal stripped fetal bovine serum (FBS) plus ligands at concentrations indicated in the figure legends for an additional 24 hr. DMSO concentration was maintained at 0.05% across all chemical treatments. Cells were lysed and assayed for luciferase and β-galactosidase activity as previously described ([Forman et al. 1995]). All transfections were performed in triplicate and reproduced in multiple experiments. Data are reported as fold induction or reduction over vehicle ([…]) controls ± SEM (standard error of the mean) using standard propagation of error ([Bevington and Robinson 2003]). […] The EC50, EC10, IC50, and IC10 values from NCGC and ToxCast™ are reported from gain AC50 and AC10 values in the ToxCast™ 2014 release ([Filer et al. 2014]).
Figure 1 ToxCast™ Chemical Activity on PPARγ. The ability of a graded dose series of ToxCast™ chemicals to (A) activate or (B) antagonize GAL4-mPPARγ was tested in transiently transfected COS7 cells. (A, B) Data points are averages of triplicate transfections (three biological replicates). […] Data are depicted as (A) fold induction or (B) reduction over vehicle (0.05% DMSO) controls ± SEM. (A) ToxCast™ chemicals were tested in 3-fold serial dilutions from 100 μM through 0.137 μM, with the final data point being 0.05% DMSO. Rosiglitazone serves as a positive control activator. (B) ToxCast™ chemicals were tested in 3-fold serial dilutions from 100 μM, in competition with 50 nM rosiglitazone (Rosi). […] (C) EC50, EC10, IC50, and IC10 values calculated from A and B are reported and compared to commercial assays (see Figure S1). Note: ATG, Attagene GAL-PPARγ activation assay; NCGC, GeneBLAzer® agonist (EC values) or antagonist (IC values) assays. Triphenyltin was previously published ([Kanayama et al. 2005]).

[4] = test system: PPARγ; set-up: method as in Filer et al. 2014; settings: ref Filer et al. 2014, cited from earlier work; for AC50: PPARγ, NA = not active, read-out: NCGC Antag. AC50, 2014 Release
[5] = test system: PPRE; set-up: method as in Knudsen et al. 2011; settings: ToxCast Phase I 2011 release; NA = not active; ref Knudsen et al. 2011; read-out: ATGC PPRE AC50; cited from earlier work
[6] = Cos-7 transient transfection, PPARγ activation or antagonism assays (Table 1, Table S6)

Row | SMILES | AC50 ([1]; ref Filer et al. 2014, read-out: NVS Agonist AC50, 2014 Release) [nM] | AC50 ([1]; ref Knudsen et al. 2011, read-out: NVS Agonist AC50, 2011 Release) [nM] | Activation of GAL4-PPARγ (text) [2] | IC50 [3] [nM] | AC50 ([3]; Activation AC50 (PPARγ antagonists), Cos-7 transient transfection, competition with 50 nM rosiglitazone) [nM] | Antagonism of PPARγ ([3]; COS7, competition against 50 nM rosiglitazone) | PPARγ antagonists: IC10, Fig 1B ([3]; COS7, in competition with 50 nM rosiglitazone, computed from IC50) [nM] | Activation COS7 (result in words): PPARγ antagonist ([3]; Cos-7 transient transfection, competition with 50 nM rosiglitazone) | PPARγ antagonists: IC10, NCGC ([4]; AC10, ToxCast 2014 release) [nM] | AC50 [4] [nM] | IC50 ([4]; read-out: PPARγ antagonists: IC50, NCGC, gain AC50, ToxCast 2014 release) [nM] | AC50 [5] [nM] | Activation COS7 (result in words), ToxCast PPARγ list [2] | Activation of GAL4-PPARγ (text) ([2]; listed as quinoxyfen) | EC50 [2] [nM] | PPARγ agonists: EC10, Fig 1A / Fig 4A [2] [nM] | AC50 ([2]; Cos-7 transient transfection) [nM] | Activation COS7 (result in words), ToxCast PPARγ list [2, 6] | Activation COS7 (result in words), ToxPi chemicals ([2]; Cos-7 transient transfection, PPARγ or RXRα activation assays (Table 2)) | AC50 ([2]; read-out: Activation AC50 (PPARγ activators), Cos-7 transient transfection) [nM]
1 | O=[N+]([O-])c1cc(C(F)(F)F)c(Cl)c([N+](=O)[O-])c1Nc1ncc(C(F)(F)F)cc1Cl [Fluazinam] | 260 | 280 | did not activate PPARγ | 7200 | 7200 | weak antagonists | 4410 | PPARγ antagonist | 200 | 1300 | 1270 | – | – | – | – | – | – | – | – | –
2 | Fc1ccc(Oc2ccnc3cc(Cl)cc(Cl)c23)cc1 [Quinoxyfen] | – | – | weakly active at 100 μM and 33 μM doses | – | – | – | – | – | – | – | – | 2800 | Inactive | activated PPARγ | 33400 | 14240 | 33400 | PPARγ Activator | PPARγ activator | –
3 | CCC(C)(C)C(=O)OC1=C(c2ccc(Cl)cc2Cl)C(=O)OC12CCCCC2 [Spirodiclofen] | – | – | activated GAL-PPARγ | – | – | – | – | – | – | – | – | – | – | – | 12800 | 7270 | – | PPARγ activator | – | 12800
4 | CCC(C)(NC(=O)c1cc(Cl)c(C)c(Cl)c1)C(=O)CCl (stereo not shown) [Zoxamide] | – | – | activated GAL-PPARγ | – | – | – | – | – | – | 400 | – | – | – | – | 1310 | 310 | 1310 | PPARγ activator | – | –
